One compound from ChEMBL document CHEMBL5029152, “Discovery of Highly Potent and Selective IRAK1 Degraders to Probe Scaffolding Functions of IRAK1 in ABC DLBCL” (J Med Chem, 2021) can be followed below.

pIC50: −log10 of the molar value. The source made the active and inactive calls. The rule behind the calls is not given here.

For one experiment, the system named is OCI-Ly10. Nature of the experiment: Cytotoxicity against human OCILY10 cells assessed as reduction in cell viability measured after 12 days by CellTiter-Glo assay. The conditions noted are these: time 12 day. In kind it is functional.
In experiment [1] the target is T1, Interleukin-1 receptor-associated kinase 1 (Homo sapiens, UniProt P51617). Description: Inhibition of truncated human N-terminal GST-fusion tagged IRAK1 (194 to 712 residues) expressed in baculovirus expression system using FAM-labelled peptide as substrate preincubated for 10 mins followed by substrate addition and further incubated for 1 hr in presence of ATP at Km concentration by caliper mobility shift assay.
Target sequence in this assay (P51617 whole entry, the tested form may be a part): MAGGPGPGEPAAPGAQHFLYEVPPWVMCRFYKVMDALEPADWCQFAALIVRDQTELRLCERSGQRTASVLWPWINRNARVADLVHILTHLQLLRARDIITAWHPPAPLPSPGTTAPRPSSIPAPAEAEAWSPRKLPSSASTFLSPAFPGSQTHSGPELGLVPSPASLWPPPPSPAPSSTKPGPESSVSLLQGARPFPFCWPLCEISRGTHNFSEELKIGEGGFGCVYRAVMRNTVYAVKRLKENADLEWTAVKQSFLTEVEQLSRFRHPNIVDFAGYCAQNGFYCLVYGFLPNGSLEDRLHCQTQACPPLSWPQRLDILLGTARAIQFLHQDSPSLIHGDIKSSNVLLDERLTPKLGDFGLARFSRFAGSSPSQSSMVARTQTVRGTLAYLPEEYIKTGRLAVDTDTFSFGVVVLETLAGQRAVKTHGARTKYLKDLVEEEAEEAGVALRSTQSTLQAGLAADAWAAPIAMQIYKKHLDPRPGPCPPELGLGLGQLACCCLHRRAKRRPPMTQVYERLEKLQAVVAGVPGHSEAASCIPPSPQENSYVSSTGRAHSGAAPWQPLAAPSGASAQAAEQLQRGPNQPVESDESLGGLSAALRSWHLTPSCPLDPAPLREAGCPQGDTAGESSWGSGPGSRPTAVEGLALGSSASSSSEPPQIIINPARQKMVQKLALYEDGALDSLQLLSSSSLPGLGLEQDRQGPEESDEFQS

For experiment [2], the target named is T2, Mitogen-activated protein kinase kinase kinase 19 (Homo sapiens) (UniProt Q56UN5).
T2 sequence (whole entry): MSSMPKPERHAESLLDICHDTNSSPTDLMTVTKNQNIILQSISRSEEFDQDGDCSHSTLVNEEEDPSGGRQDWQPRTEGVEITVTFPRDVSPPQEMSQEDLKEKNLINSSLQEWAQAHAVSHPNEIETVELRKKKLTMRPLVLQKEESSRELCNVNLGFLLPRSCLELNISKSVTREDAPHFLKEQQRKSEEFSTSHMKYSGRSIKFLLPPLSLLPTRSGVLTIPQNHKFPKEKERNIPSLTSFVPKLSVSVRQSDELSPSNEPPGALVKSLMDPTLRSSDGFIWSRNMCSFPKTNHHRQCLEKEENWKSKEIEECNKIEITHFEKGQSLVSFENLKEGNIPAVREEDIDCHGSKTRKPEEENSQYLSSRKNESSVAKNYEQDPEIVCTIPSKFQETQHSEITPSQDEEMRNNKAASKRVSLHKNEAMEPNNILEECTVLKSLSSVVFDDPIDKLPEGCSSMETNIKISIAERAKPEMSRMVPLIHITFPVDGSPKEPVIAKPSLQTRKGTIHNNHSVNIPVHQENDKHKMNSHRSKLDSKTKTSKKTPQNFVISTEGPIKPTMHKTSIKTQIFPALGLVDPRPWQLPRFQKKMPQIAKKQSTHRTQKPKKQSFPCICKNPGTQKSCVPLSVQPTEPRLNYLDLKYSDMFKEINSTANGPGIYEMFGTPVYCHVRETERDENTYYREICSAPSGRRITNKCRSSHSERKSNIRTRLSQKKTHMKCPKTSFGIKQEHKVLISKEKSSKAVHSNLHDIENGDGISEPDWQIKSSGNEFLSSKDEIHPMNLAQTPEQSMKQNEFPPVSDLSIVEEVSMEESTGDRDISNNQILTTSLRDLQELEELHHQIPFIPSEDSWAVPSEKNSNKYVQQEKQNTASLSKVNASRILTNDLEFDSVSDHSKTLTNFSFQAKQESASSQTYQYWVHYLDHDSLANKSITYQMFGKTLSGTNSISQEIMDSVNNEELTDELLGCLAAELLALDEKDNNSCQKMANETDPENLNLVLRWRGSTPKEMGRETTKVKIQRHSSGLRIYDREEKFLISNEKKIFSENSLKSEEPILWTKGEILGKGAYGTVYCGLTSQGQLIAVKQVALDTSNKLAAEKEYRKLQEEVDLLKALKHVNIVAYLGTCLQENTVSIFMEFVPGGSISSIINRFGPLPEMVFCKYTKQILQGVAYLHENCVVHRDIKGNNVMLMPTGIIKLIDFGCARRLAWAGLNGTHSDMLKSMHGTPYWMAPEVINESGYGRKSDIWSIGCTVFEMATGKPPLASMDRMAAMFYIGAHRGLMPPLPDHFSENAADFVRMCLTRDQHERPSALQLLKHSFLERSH
Nature of the experiment: Inhibition of wild-type human partial length YSK4 (T1019 to H1328 residues) expressed in mammalian expression system at 1 uM by Kinomescan method.

Experiment [3] addresses T3, von Hippel-Lindau disease tumor suppressor/Interleukin-1 receptor-associated kinase 1 (Homo sapiens, UniProt P51617+P40337). Nature of the experiment: Protac activity at IRAK1/VHL E3 ligase in HEK293T cells assessed as induction of IRAK1 degradation at 1 uM measured after 24 hrsin presence of proteasome inhibitior MG-132 by Western blot analysis. It is filed as cell-based. The note with it: time 24.0 hrs.
Target sequence in this assay (P40337 whole entry, looked up): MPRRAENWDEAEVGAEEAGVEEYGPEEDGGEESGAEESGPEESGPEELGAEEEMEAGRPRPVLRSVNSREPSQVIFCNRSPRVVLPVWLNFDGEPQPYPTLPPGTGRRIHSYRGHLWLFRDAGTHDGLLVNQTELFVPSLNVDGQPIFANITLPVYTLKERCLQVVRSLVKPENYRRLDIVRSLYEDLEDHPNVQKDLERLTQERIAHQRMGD
Target sequence in this assay (P51617 whole entry, looked up): as the sequence (P51617 whole entry, the tested form may be a part) above

Experiment [4] deals with von Hippel-Lindau disease tumor suppressor (Homo sapiens, UniProt P40337). Nature of the experiment: Displacement of 5-FAM-labelled DEALA-HypYIPMDDDFQLRSF peptide from VHL (unknown origin) by fluorescence polarization assay.
The target in experiment [5] is T1, Interleukin-1 receptor-associated kinase 1. Description: Inhibition of IRAK1 in human HBL1 cells assessed as reduction in phosphorylated STAT3 level at up to 1 uM measured after 24 hrs by Western blot analysis. In kind it is cell-based. The conditions noted are these: dose microM <=1, time 24.0 hrs.
Target sequence in this assay (P51617 whole entry, looked up, the tested form may be a part): as the sequence (P51617 whole entry, the tested form may be a part) above
The target is the same in experiment [6]. Description: Inhibition of IRAK1 in human HBL1 cells assessed as reduction in total STAT3 level at up to 1 uM measured after 24 hrs by Western blot analysis. It is filed as cell-based. The note with it: dose microM <=1, time 24.0 hrs.
Target sequence in this assay (P51617 whole entry, looked up, the tested form may be a part): as the sequence (P51617 whole entry, the tested form may be a part) above
The next experiment relates to HBL1. Nature of the experiment: Induction of apoptosis in human HBL1 cells assessed as increase in PARP cleavage at up to 1 uM measured after 24 hrs by Western blot analysis. In kind it is functional, cell-based. The note with it: dose microM <=1, time 24.0 hrs.
Experiment [7] deals with T3, von Hippel-Lindau disease tumor suppressor/Interleukin-1 receptor-associated kinase 1. Nature of the experiment: Protac activity at IRAK1/VHL E3 ligase in human OCILY10 assessed as induction of IRAK1 degradation measured after 24 hrs by Western blot analysis.
Target sequence in this assay (P51617 whole entry): as the sequence (P51617 whole entry, the tested form may be a part) above
Target sequence in this assay (P40337 whole entry): as the sequence (P40337 whole entry, looked up) above

Sequence of von Hippel-Lindau disease tumor suppressor (P40337 whole entry): as the sequence (P40337 whole entry, looked up) above

As for `COc1cc(N2CCC(OCC(=O)N[C@H](C(=O)N3C[C@H](O)C[C@H]3C(=O)N[C@@H](C)c3ccc(-c4scnc4C)cc3)C(C)(C)C)CC2)ccc1NC(=O)c1cccc(-c2ccn[nH]2)n1`, in the experiment on OCI-Ly10, the Activity is on record as 170 nM. For the same compound, the values for the pIC50 in [1] and in [4] were 7.14 and 5.97, respectively. The inhibition result in experiment [2] and in experiment [5] was “Active” in each case. Besides, the outcome in experiment [3] was inactive. Further, the inhibition entry in [6] is “inactive”. In addition, the result in the experiment with HBL1 was Active. The DC50 in [7] stood at 20 nM.
